{"source": "paper PMC7824826", "about": "“SZR-104, a Novel Kynurenic Acid Analogue with High Permeability through the Blood–Brain Barrier” (Pharmaceutics, 2021)", "key": {"[1]": {"system": "in vitro blood–brain barrier model (primary rat brain endothelial cells and pericytes on Transwell filters, glial-conditioned media)", "assay": "Permeability assay through the in vitro BBB model", "assay_type": "in vitro ADME", "conditions": "for Papp % (permeability coefficient compared to KYNA) / Papp% (permeability coefficient compared to sodium-fluorescein): 10 µM in top compartment; for Papp % (permeability coefficient compared to KYNA): N = 3, relative to KYNA; for Differences among permeability of KYNA, xanthurenic acid and 39B: 30 and 60 min; for Papp% (permeability coefficient compared to sodium-fluorescein): N = 2, relative to sodium-fluorescein; for Permeability compared to other analogues: p < 0.05; for BBB penetration compared to the other derivatives tested: conclusion", "experimental": "Primary rat brain endothelial cells (RBECs) were isolated from 2-week old rats. Animals were sacrificed by cervical dislocation. Briefly, after removal of meninges, cerebral cortices were cut into small pieces and digested in two steps with 1 mg/mL collagenase type 2 and 1 mg/mL collagenase/dispase, followed by centrifugation on a percoll gradient (all from Sigma-Aldrich, St. Louis, MO, USA). Isolated microvessels were plated on fibronectin/collagen-coated dishes. Endothelial cells growing out of the microvessels were cultured in DMEM/F12 (Thermo Fisher Scientific, Waltham, MA, USA), 10% plasma-derived serum (PDS, First Link UK Ltd, Birmingham, UK) and growth factors. In the first two days, 4 µg/mL puromycin (Sigma-Aldrich) was added to remove contaminating cells. Cells were frozen in liquid nitrogen and passage 1 cells were further used. Rat brain pericytes were obtained from cerebral microvessels plated onto rat-tail collagen-coated dishes in PM medium (ScienCell, Carlsbad, CA, USA) complemented with 5% fetal bovine serum (FBS) and penicillin/streptomycin. Cells were split into new dishes, frozen in liquid nitrogen and passage 4 cells were further used. Glial cultures (>90% astrocytes) were prepared from newborn rats and cultured on poly-L-lysine-coated surfaces in DMEM (Thermo Fisher Scientific) and 10% FBS (Thermo Fisher Scientific). After reaching confluence, conditioned media was collected twice a week, centrifuged, sterile filtered and kept at −20 °C.\nPericytes were plated onto the backside of 12-well semipermeable filters (Corning-Costar Transwell Clear; pore size: 0.4 μm; 1.5 × 10^4 cells/filter). The next day, RBECs were plated onto the upper surface of the filters. […] TEER was followed until reaching plateau of 150–250 Ohm × cm^2.\nTranswell filters containing endothelial cells and pericytes were removed from the CellZscope instrument. Filters were washed with Ringer-HEPES solution (pH = 7.4). […] The bottom compartment was loaded with Ringer-HEPES. Filters were placed to 37 °C and gentle shaking (110 rpm) was applied. Samples were taken from the basolateral side after 30 and 60 min. The concentrations of the samples were quantitated as described below and apparent permeability was calculated using the formula: Papp = dQ/(dT × A × C0), where dQ is the transported amount, dT is the incubation time, A is the surface of filter (1.12 cm^2), and C0 is the initial concentration. Statistical analysis was performed with ANOVA and Bonferroni’s post-hoc test.\nThe concentrations of the samples were quantitated with an Agilent 1100 HPLC system (Agilent Technologies, Santa Clara, CA, USA), consisting of a binary pump, a micro vacuum degasser, a thermostated column compartment, an automatic liquid sampler, a MS detector (LCMSD VL), and ChemStation data managing software. Chromatographic separations with the HPLC-MS system were performed on a Kinetex C18 column, 100 × 4.6 mm 2.6 μm particle size (Phenomenex, Torrance, CA, USA) with a mobile phase composition of 0.05% aqueous HCOOH/ACN = 90/10 (v/v), applying isocratic elution. The flow rate and the injection volume were 1 mL/min and 20 µL, respectively. The mass spectrometer was used in positive electrospray ionization mode. The drying gas temperature, drying gas flow rate, nebulizer pressure and capillary voltage were 350 °C, 13 L/min, 60 psi and 3500 V, respectively. […]"}, "[2]": {"system": "human lymphoma U-937 cells", "design": "method as in PMID 31316502", "conditions": "U-937 cells infected with Staphylococcus aureus; cited from earlier work"}, "hippocampus": {"system": "hippocampus", "design": "method as in PMID 22231843", "conditions": "systemic administration; cited from earlier work"}, "[3]": {"system": "PACAP mRNA expression in nucleus trigeminalis caudalis", "design": "method as in PMID 29387039", "conditions": "animal model of migraine; cited from earlier work"}, "MAPK and NFκB": {"system": "MAPK and NFκB", "conditions": "intraperitoneally administered; cited from earlier work"}, "[4]": {"system": "c-fos and glutamate in NTC neurons", "design": "method as in PMID 28337634", "conditions": "systematic injection; cited from earlier work"}, "NTC": {"system": "NTC", "design": "method as in PMID 27919017", "conditions": "cited from earlier work"}, "[5]": {"system": "transgenic mouse model of HD", "design": "method as in PMID 21194001", "conditions": "cited from earlier work"}}}
{"smiles": "O=C(O)c1cc(O)c2cccc(O)c2n1", "note": "[xanthurenic acid]", "values": [{"measurement": "Papp % (permeability coefficient compared to KYNA)", "setting": "[1]; 30 min", "value": 110, "unit": "%"}, {"measurement": "Papp % (permeability coefficient compared to KYNA)", "setting": "[1]; 60 min", "value": 89, "unit": "%"}, {"measurement": "Differences among permeability of KYNA, xanthurenic acid and 39B", "setting": "[1]; 10 µM", "value": "not statistically significant"}]}
{"smiles": "CN(C)CCNC(=O)c1nc2ccccc2c(O)c1CN1CCOCC1", "note": "[SZR-104, N-(2-(dimethylamino)ethyl)-3-(morpholinomethyl)-4-hydroxyquinoline-2-carboxamide]", "values": [{"measurement": "Papp % (permeability coefficient compared to KYNA)", "setting": "[1]; 30 min", "value": 210, "unit": "%"}, {"measurement": "Papp% (permeability coefficient compared to sodium-fluorescein)", "setting": "[1]; 60 min", "value": 325, "unit": "%"}, {"measurement": "Papp % (permeability coefficient compared to KYNA)", "setting": "[1]; 60 min", "value": 222, "unit": "%"}, {"measurement": "Permeability compared to other analogues", "setting": "[1]; 10 µM, 60 min", "value": "significantly higher"}, {"measurement": "Permeability compared to KYNA, xanthurenic acid or 39B", "setting": "[1]; 10 µM, both at 30 min and 60 min, p < 0.01", "value": "significantly higher permeability"}, {"measurement": "BBB penetration compared to the other derivatives tested", "setting": "[1]", "value": "high BBB penetration"}, {"measurement": "TNF-α production", "setting": "[2]", "value": "reduced"}, {"measurement": "mRNA expression of TSG-6", "setting": "[2]", "value": "increased"}, {"measurement": "Population spike activity in the hippocampus", "setting": "hippocampus", "value": "decreased"}, {"measurement": "Protection against pentylenetetrazol-induced epileptiform seizures", "setting": "hippocampus", "value": "provided protection"}]}
{"smiles": "O=C(NCCN1CCCC1)c1nc2ccccc2c(O)c1CN1CCOCC1", "note": "[SZR-105]", "values": [{"measurement": "Papp% (permeability coefficient compared to sodium-fluorescein)", "setting": "[1]; 60 min", "value": 319, "unit": "%"}, {"measurement": "Permeability compared to other analogues", "setting": "[1]; 10 µM, 60 min", "value": "significantly higher"}, {"measurement": "BBB penetration compared to the other derivatives tested", "setting": "[1]", "value": "high BBB penetration"}, {"measurement": "TNF-α production", "setting": "[2]", "value": "reduced"}, {"measurement": "mRNA expression of TSG-6", "setting": "[2]", "value": "increased"}]}
{"smiles": "CN(C)CCNC(=O)c1nc2ccccc2c(O)c1CN1CCCC1", "note": "[SZR-106]", "values": [{"measurement": "Papp% (permeability coefficient compared to sodium-fluorescein)", "setting": "[1]; 60 min", "value": 230, "unit": "%"}]}
{"smiles": "O=C(O)c1[nH]c2c(O)cccc2c(=O)c1CN1CCOCC1", "note": "[39B, 8-Hydroxy-3-(Morpholinomethyl)-4-Oxo-1,4-Dihydroquinoline-2-Carboxylic Acid]", "values": [{"measurement": "Papp % (permeability coefficient compared to KYNA)", "setting": "[1]; 30 min", "value": 54, "unit": "%"}, {"measurement": "Papp % (permeability coefficient compared to KYNA)", "setting": "[1]; 60 min", "value": 74, "unit": "%"}, {"measurement": "Differences among permeability of KYNA, xanthurenic acid and 39B", "setting": "[1]; 10 µM", "value": "not statistically significant"}]}
{"smiles": "CN(C)CCNC(=O)c1cc(=O)c2ccccc2[nH]1", "note": "[SZR-72, N-(2-N,N-dimethylaminoethyl)-4-oxo-1H-quinoline-2-carboxamide]", "values": [{"measurement": "Electrical TRG stimulation-induced PACAP mRNA expression in NTC", "setting": "[3]", "value": "decreased"}, {"measurement": "Overexpression of MAPK and NFκB", "setting": "MAPK and NFκB", "value": "reduced"}, {"measurement": "Elevated levels of c-fos and glutamate in NTC neurons", "setting": "[4]", "value": "abolished"}, {"measurement": "Nitroglycerin-induced neuronal activation in NTC (antihyperalgesic effect)", "setting": "NTC", "value": "attenuating"}, {"measurement": "Atrophy of the striatal neurons", "setting": "[5]", "value": "completely prevented"}, {"measurement": "Hypolocomotion", "setting": "[5]", "value": "ameliorated"}, {"measurement": "Lifetime of mice", "setting": "[5]", "value": "prolonged"}]}
{"smiles": "CN(C)CCNC(=O)c1nc2ccccc2c(O)c1CN1CCCCC1", "note": "[SZR-100]", "values": [{"measurement": "Papp% (permeability coefficient compared to sodium-fluorescein)", "setting": "[1]; 60 min", "value": 177, "unit": "%"}]}
{"smiles": "O=C(NCCN1CCCC1)c1nc2ccccc2c(O)c1CN1CCCC1", "note": "[SZR-107]", "values": [{"measurement": "Papp% (permeability coefficient compared to sodium-fluorescein)", "setting": "[1]; 60 min", "value": 156, "unit": "%"}]}
{"smiles": "O=C(O)c1cc(=O)c2ccccc2[nH]1", "note": "[KYNA, kynurenic acid]", "values": [{"measurement": "Papp % (permeability coefficient compared to KYNA)", "setting": "[1]; 30 min", "value": 100, "unit": "%"}, {"measurement": "Papp % (permeability coefficient compared to KYNA)", "setting": "[1]; 60 min", "value": 100, "unit": "%"}, {"measurement": "Differences among permeability of KYNA, xanthurenic acid and 39B", "setting": "[1]; 10 µM", "value": "not statistically significant"}, {"measurement": "Electrical TRG stimulation-induced PACAP mRNA expression in NTC", "setting": "[3]", "value": "decreased"}, {"measurement": "Overexpression of MAPK and NFκB", "setting": "MAPK and NFκB", "value": "reduced"}, {"measurement": "Elevated levels of c-fos and glutamate in NTC neurons", "setting": "[4]", "value": "abolished"}, {"measurement": "Nitroglycerin-induced neuronal activation in NTC (antihyperalgesic effect)", "setting": "NTC", "value": "attenuating"}]}
{"smiles": "O=C(NCCN1CCCC1)c1nc2ccccc2c(O)c1CN1CCCCC1", "note": "[SZR-101]", "values": [{"measurement": "Papp% (permeability coefficient compared to sodium-fluorescein)", "setting": "[1]; 60 min", "value": 131, "unit": "%"}]}
